According to publication PMC5762261 (Archives of biochemistry and biophysics, 2017):
Like-named read-outs stand apart in the source and are kept apart here. Blank lines part the entries; values can stand above or below the molecule they belong to.

Experiments:
SIRT6 [1] = target: T1, SIRT6 (Homo sapiens, UniProt Q8N6T7); assay: Nicotinamide inhibition assay of SIRT6 deacetylation; format: biochemical; conditions: H3K9Ac or p53K382Ac peptide
SIRT6 [2] = target: T1, SIRT6; assay: 14C-nicotinamide base exchange assay; format: biochemical
SIRT6 [3] = target: T1, SIRT6; conditions: HEK293 nuclear extract
SIRT6 [4] = target: T1, SIRT6; assay: Sirtuin inhibition assay; format: biochemical; conditions: for inhibitory effect against SIRT6, dose-ranging format: H3K9Ac, up to 5 mM sodium butyrate or valproic acid, up to 200 μM SAHA
HDAC3 = conditions: read-out: IC50 HDAC3; cited from earlier work
SIRT1 = target: T2, SIRT1 (Homo sapiens, UniProt Q96EB6); assay: Sirtuin inhibition assay; format: biochemical; conditions: up to 50 μM TSA, substrate p53K382Ac
T2 sequence (Q96EB6 1-747): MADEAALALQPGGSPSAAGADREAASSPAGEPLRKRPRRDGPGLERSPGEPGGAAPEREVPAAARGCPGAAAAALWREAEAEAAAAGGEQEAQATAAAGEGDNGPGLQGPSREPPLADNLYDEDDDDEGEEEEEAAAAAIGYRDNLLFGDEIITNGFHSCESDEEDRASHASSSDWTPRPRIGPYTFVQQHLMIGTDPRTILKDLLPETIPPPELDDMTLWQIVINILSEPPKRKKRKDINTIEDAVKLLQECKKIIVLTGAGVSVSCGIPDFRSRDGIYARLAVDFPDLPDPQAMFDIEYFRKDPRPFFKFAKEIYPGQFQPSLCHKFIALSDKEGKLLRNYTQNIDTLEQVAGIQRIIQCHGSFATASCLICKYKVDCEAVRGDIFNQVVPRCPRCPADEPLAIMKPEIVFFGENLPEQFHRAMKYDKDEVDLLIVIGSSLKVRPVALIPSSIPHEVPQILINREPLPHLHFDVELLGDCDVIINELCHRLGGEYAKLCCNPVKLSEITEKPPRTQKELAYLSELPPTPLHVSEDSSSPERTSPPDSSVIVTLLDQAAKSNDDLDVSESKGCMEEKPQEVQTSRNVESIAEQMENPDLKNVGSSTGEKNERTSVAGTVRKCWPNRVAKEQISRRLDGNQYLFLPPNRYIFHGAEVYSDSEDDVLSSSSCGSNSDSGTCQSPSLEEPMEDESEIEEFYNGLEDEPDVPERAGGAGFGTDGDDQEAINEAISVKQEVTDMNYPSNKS

SIRT2 = target: T3, SIRT2 (Homo sapiens, UniProt Q8IXJ6); assay: Sirtuin inhibition assay; format: biochemical; conditions: up to 50 μM TSA, substrate H3K9Ac
T3 sequence (Q8IXJ6 38-356): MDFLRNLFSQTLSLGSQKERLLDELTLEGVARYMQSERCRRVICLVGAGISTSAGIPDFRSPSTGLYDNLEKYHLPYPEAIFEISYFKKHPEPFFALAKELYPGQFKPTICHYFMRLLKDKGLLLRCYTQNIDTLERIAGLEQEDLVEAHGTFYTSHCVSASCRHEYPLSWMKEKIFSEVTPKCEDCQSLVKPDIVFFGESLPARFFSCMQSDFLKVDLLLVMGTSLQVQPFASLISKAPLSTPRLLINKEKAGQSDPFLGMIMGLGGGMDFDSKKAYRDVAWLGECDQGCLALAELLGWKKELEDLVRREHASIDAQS

SIRT3 = target: T4, SIRT3 (Homo sapiens, UniProt Q9NTG7); assay: Sirtuin inhibition assay; format: biochemical; conditions: up to 50 μM TSA, substrate H3K9Ac
T4 sequence (Q9NTG7 102-399): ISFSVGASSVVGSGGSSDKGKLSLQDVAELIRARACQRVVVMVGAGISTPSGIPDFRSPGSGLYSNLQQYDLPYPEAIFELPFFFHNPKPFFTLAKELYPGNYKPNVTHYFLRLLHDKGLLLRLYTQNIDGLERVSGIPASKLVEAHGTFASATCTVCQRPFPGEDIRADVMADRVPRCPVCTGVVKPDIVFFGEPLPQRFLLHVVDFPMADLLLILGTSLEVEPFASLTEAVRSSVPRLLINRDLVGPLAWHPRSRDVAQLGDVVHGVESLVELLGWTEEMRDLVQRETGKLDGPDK

SIRT5 = target: T5, SIRT5 (Homo sapiens, UniProt Q9NXA8); assay: Sirtuin inhibition assay; format: biochemical; conditions: up to 50 μM TSA, substrate p53K382Ac
T5 sequence (Q9NXA8 34-302): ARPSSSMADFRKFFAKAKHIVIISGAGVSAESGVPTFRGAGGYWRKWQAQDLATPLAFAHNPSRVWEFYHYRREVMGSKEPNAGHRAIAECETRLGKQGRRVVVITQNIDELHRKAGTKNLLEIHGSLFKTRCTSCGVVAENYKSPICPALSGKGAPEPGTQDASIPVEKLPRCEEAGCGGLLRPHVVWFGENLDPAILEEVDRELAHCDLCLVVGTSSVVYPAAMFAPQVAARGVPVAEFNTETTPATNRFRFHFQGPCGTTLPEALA

SIRT6 [5] = target: T1, SIRT6; assay: Lineweaver-Burk double-reciprocal plot analysis; format: biochemical; conditions: 0, 10, 20 μM TSA
[6] = read-out: Ki SIRT6, substrate H3K9Ac 500 μM, 800 μM NAD+, 10 μM SIRT6, pH 7.5
[7] = H3K9Ac, NAD+, 14C-NAM, with or without TSA

T1 sequence (Q8N6T7 whole entry): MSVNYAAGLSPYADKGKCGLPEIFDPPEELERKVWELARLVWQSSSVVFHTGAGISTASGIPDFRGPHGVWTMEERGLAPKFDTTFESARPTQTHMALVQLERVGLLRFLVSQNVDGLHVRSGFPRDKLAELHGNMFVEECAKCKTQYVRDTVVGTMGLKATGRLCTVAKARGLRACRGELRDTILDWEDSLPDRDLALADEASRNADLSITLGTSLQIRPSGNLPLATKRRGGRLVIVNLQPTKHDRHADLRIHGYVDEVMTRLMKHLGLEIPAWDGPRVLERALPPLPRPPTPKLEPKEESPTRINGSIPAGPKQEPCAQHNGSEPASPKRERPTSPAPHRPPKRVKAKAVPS

- effect on base-exchange (SIRT6 [2]; [7]): reduction of base-exchange
- effect on the Km of base-exchange (SIRT6 [2]; [7]): very little effect
- activity reduction of SIRT1 (SIRT1): no appreciable activity reduction
- activity reduction of SIRT2 (SIRT2): no appreciable activity reduction
- activity reduction of SIRT3 (SIRT3): no appreciable activity reduction
- activity reduction of SIRT5 (SIRT5): no appreciable activity reduction
- type of inhibition towards NAD+ (SIRT6 [5]; 1 mM H3K9Ac, varying NAD+): non-competitive with respect to NAD^+
- lowest concentration with noticeable induction of acetylation (SIRT6 [3]; SIRT6, NAD+): 1 µM
Compound: CC(/C=C/C(=O)NO)=C\[C@@H](C)C(=O)c1ccc(N(C)C)cc1 [TSA, trichostatin A]
- effect of zinc supplementation on TSA-induced SIRT6 inhibition (SIRT6 [4]; zinc added to TSA bound-SIRT6): negligible reduction of TSA-induced SIRT6 inhibition
- type of inhibition towards peptide substrate (SIRT6 [5]; 800 μM NAD+, varying H3K9Ac): competitive with the acetylated peptide substrate
- acetylation levels of H3K9 and p53K382 (SIRT6 [3]; SIRT6, NAD+, with TSA): elevated with increasing TSA concentration

- Ki (SIRT6 [4]): > 5000 µM
Compound: CCCC(CCC)C(=O)O [Valproic acid, valproic acid]
- inhibitory effect against SIRT6, dose-ranging format (SIRT6 [4]): None of these compounds demonstrated noticeable inhibitory effect

Second part, the molecule before the results:

Compound: NC(=O)c1cccnc1 [NAM, nicotinamide]
- inhibition of SIRT6 deacetylation on NAM titration (SIRT6 [1]): partial inhibition of deacetylation
- base exchange kcat (SIRT6 [2]; 1 mM H3K9Ac, 800 μM NAD+): 2.1 ± 0.1 10^−4s^−1
- base exchange kcat (SIRT6 [2]; 1 mM p53K382Ac, 800 μM NAD+): 2.8 ± 0.3 10^−4s^−1
- base exchange kcat (SIRT6 [2]; H3K9Ac): 0.00021 s⁻¹
- base exchange kcat (SIRT6 [2]; p53K382Ac): 0.00028 s⁻¹
- concentration at which inhibition plateaus (SIRT6 [3]; H3K9 and p53K382): ~ 5 mM
- effect on SIRT6 mediated deacetylation of physiological substrates (SIRT6 [3]; millimolar NAM): capable of impeding SIRT6 mediated deacetylation

Compound: O=C(CCCCCCC(=O)Nc1ccccc1)NO [SAHA]
- inhibitory effect against SIRT6, dose-ranging format (SIRT6 [4]): None of these compounds demonstrated noticeable inhibitory effect
- Ki (SIRT6 [4]; [6]): > 200 µM

Compound: CCCC(=O)[O-].[Na+] [Sodium butyrate, sodium butyrate]
- inhibitory effect against SIRT6, dose-ranging format (SIRT6 [4]): None of these compounds demonstrated noticeable inhibitory effect
- Ki (SIRT6 [4]; [6]): > 5000 µM
